The source of these data is PubChem BioAssay (NCI).

Among the test systems are SK-MEL-5 melanoma; NCI-H226 lung; OVCAR-3 ovarian; SNB-75 CNS; HCT-15 colon; ACHN renal; SR leukemia; UACC-257 melanoma; RPMI-8226 leukemia; A498 renal.
Common to all, as to assay: NCI tumour cell line growth inhibition, 48 h

“And” between values parts separate entries of the source, which are not always exact repeats. Equal entries are not always repeated.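 Test compounds were applied to cells in 96-well plates for 48 hours at 5 doses. Abbreviation: GI50, concentration required for 50% inhibition of growth. TGI: total growth inhibition.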 A value given as a limit tells only on which side of the number the result lay.

Take `Clc1ccc(Nc2ncnc3c2sc2ncccc23)c(Cl)c1`: the GI50 is 0.0254 µM in the test with SK-MEL-5 melanoma; 0.42 µM in the test on NCI-H226 lung; 1 µM in the test on OVCAR-3 ovarian; 0.0689 µM with SNB-75 CNS; 0.052 µM in the test on HCT-15 colon; below 0.01 µM with ACHN renal. Besides, the GI50 was below 0.0187 µM with SR leukemia, 0.0557 µM in the test with UACC-257 melanoma, 0.0326 µM with RPMI-8226 leukemia and 0.0317 µM in the test with A498 renal. The TGI in the test on SK-MEL-5 melanoma is above 100 µM; with NCI-H226 lung, above 100 µM; in the test with OVCAR-3 ovarian, above 100 µM; with SNB-75 CNS, above 30.9 µM; in the test with HCT-15 colon it was above 100 µM; with ACHN renal, 3.95 µM. The TGI with SR leukemia was above 100 µM; in the test with UACC-257 melanoma, above 100 µM; in the test with RPMI-8226 leukemia, above 100 µM; in the test with A498 renal, above 22.1 µM.

As to `O=C1Nc2c(ccc(Cl)c2Cl)/C1=C\c1cc(C(F)(F)F)cc(C(F)(F)F)c1`, the GI50 with SK-MEL-5 melanoma is 2.67 µM; in the test with NCI-H226 lung, 5.48 µM; in the test on OVCAR-3 ovarian, 1.1 µM; with SNB-75 CNS it was 1.05 µM; with HCT-15 colon it was 1.4 µM; in the test on ACHN renal, 3.18 µM. Further, the GI50 was 0.392 µM with SR leukemia, 6.62 µM in the test with UACC-257 melanoma, 0.115 µM in the test with RPMI-8226 leukemia and 5.59 µM with A498 renal. Moreover, the TGI is 8.45 µM with SK-MEL-5 melanoma; 13.7 µM in the test with NCI-H226 lung; 4.27 µM in the test on OVCAR-3 ovarian; 7.48 µM with SNB-75 CNS; 6.07 µM with HCT-15 colon; 11.3 µM in the test on ACHN renal. The TGI with SR leukemia is 1.9 µM; in the test with UACC-257 melanoma, 13.7 µM; in the test on RPMI-8226 leukemia, 1.45 µM; in the test with A498 renal, 13.6 µM.

Consider `Nc1nc(Cl)nc2c1ncn2C1OC(CO)C(O)C1O` (stereo not drawn), for which the GI50 in the test on SK-MEL-5 melanoma was 2.89 µM; in the test with NCI-H226 lung, above 100 µM; with OVCAR-3 ovarian, above 100 µM; in the test on SNB-75 CNS, above 100 µM; in the test with HCT-15 colon, 7.57 µM; in the test with ACHN renal, 3.98 µM. Besides, the GI50 in the test with SR leukemia was 8.92 µM; with UACC-257 melanoma, above 100 µM; in the test on RPMI-8226 leukemia it was above 100 µM; with A498 renal, above 64.4 µM. In addition, the TGI in the test on SK-MEL-5 melanoma, with NCI-H226 lung, with OVCAR-3 ovarian, in the test with SNB-75 CNS, in the test with HCT-15 colon and in the test with ACHN renal was above 100 µM each time. The TGI with SR leukemia, in the test on UACC-257 melanoma, with RPMI-8226 leukemia and in the test on A498 renal was above 100 µM in each case.

Turning to `O=C1c2ccccc2-c2ccccc2C1(Cl)Cl`, the GI50 with SK-MEL-5 melanoma is 1.32 µM; in the test with NCI-H226 lung, 1.79 µM; in the test on OVCAR-3 ovarian, 1.41 µM; in the test on SNB-75 CNS, 1.62 µM; with HCT-15 colon, 1.81 µM; with ACHN renal, 1.72 µM. Besides, the GI50 with SR leukemia was 2.71 µM; in the test on UACC-257 melanoma it was 0.203 µM; with RPMI-8226 leukemia, 0.527 µM; in the test with A498 renal it was 1.09 µM. Further, the TGI was 2.63 µM in the test with SK-MEL-5 melanoma; 3.49 µM in the test on NCI-H226 lung; 2.71 µM with OVCAR-3 ovarian; 3 µM in the test on SNB-75 CNS; 4.25 µM in the test with HCT-15 colon; 3.53 µM in the test on ACHN renal. Besides, the TGI is 8.71 µM with SR leukemia, 0.476 µM in the test on UACC-257 melanoma, 2.63 µM in the test with RPMI-8226 leukemia and 2.77 µM in the test on A498 renal.

As to `O=[N+]([O-])c1cccc([I+]c2ccccc2)c1`, the GI50 in the test on SK-MEL-5 melanoma was 2.27 µM; with NCI-H226 lung, 7.12 µM; in the test on OVCAR-3 ovarian, 11.3 µM; in the test on SNB-75 CNS, 6.56 µM; in the test with HCT-15 colon, 5.35 µM; in the test with ACHN renal it was 19.6 µM. Also, the GI50 is 3.16 µM in the test on SR leukemia, 12.1 µM with UACC-257 melanoma, 4.09 µM in the test with RPMI-8226 leukemia and 10.4 µM with A498 renal. In addition, the TGI with SK-MEL-5 melanoma was 10.8 µM; with NCI-H226 lung, 21.3 µM; with OVCAR-3 ovarian, 26.8 µM; in the test with SNB-75 CNS, 20.8 µM; in the test on HCT-15 colon it was 30.1 µM; in the test with ACHN renal, above 100 µM. Moreover, the TGI in the test with SR leukemia is 25.9 µM; with UACC-257 melanoma it was 28 µM; in the test on RPMI-8226 leukemia, 30.7 µM; in the test with A498 renal it was 28.4 µM.

On to `O=C(NC(Cc1ccccc1)C(=O)CCl)OCc1ccccc1` (stereo not drawn), for which the GI50 with SK-MEL-5 melanoma is 4.38 µM; in the test on NCI-H226 lung, 13.4 µM; in the test with OVCAR-3 ovarian, 3.65 µM; in the test with SNB-75 CNS it was 4.77 µM; in the test on HCT-15 colon, 2.32 µM; in the test with ACHN renal, 3.72 µM. Further, the GI50 in the test on SR leukemia was 2.23 µM; in the test on RPMI-8226 leukemia, 2.44 µM; with A498 renal, 10.2 µM. The TGI is 16.9 µM and 26.4 µM in the test with SK-MEL-5 melanoma; 55.5 µM in the test on NCI-H226 lung; 11.8 µM and 18.7 µM in the test with OVCAR-3 ovarian; 18.9 µM and 30.2 µM in the test on SNB-75 CNS; 8.56 µM and 17.8 µM in the test on HCT-15 colon; 13.3 µM and 21.8 µM in the test with ACHN renal. Also, the TGI in the test with SR leukemia was above 100 µM; with UACC-257 melanoma, 26.7 µM and 26.2 µM; in the test with A498 renal, 23 µM and 27.6 µM.

Consider `Cc1cc2nc3c4cc([N+](=O)[O-])ccc4n(CCN(C)C)c3nc2cc1C`, for which the GI50 in the test with SK-MEL-5 melanoma is 1.02 µM; in the test on NCI-H226 lung, 0.966 µM; in the test on OVCAR-3 ovarian, 0.59 µM; with SNB-75 CNS, 0.842 µM; in the test with HCT-15 colon, 0.36 µM; in the test on ACHN renal, 0.297 µM. In addition, the GI50 was 0.253 µM in the test on SR leukemia, 0.725 µM in the test on UACC-257 melanoma, 0.459 µM with RPMI-8226 leukemia and 0.452 µM with A498 renal. Moreover, the TGI in the test on SK-MEL-5 melanoma is 2.21 µM; in the test with NCI-H226 lung, 5.81 µM; in the test on OVCAR-3 ovarian it was 5.23 µM; with SNB-75 CNS it was 2.7 µM; in the test with HCT-15 colon, 3.04 µM; with ACHN renal, 1.68 µM. Further, the TGI in the test with SR leukemia is 5.1 µM; with UACC-257 melanoma, 4.21 µM; with RPMI-8226 leukemia, 3.19 µM; in the test with A498 renal it was 1.74 µM.
